Test results reported in patent US9713602B1, “Method for facilitating the oxygen release of hemoglobin-based blood substitutes” (National Sun Yat-sen University, priority 2016, dated 2017).
Entries after “also recorded” stand apart in the source; their conditions may differ.

How the values were obtained:
hemoglobin = hemoglobin (Homo sapiens, UniProt P68871+P69905); assay: oxygen equilibrium curves / P50 value of hemoglobin; format: biochemical; conditions: for effect with 2,3-BPG in modulating hemoglobin allostery: FIG. 2
fetal hemoglobin (HbF) = fetal hemoglobin (HbF) (Homo sapiens, UniProt P69892+P69905); assay: oxygen equilibrium curves / P50 value of fetal hemoglobin (HbF); format: biochemical; conditions: for shift of the oxygen equilibrium curve of fetal hemoglobin (HbF): 0.6-4.0 mM compound with 0.6 or 2.5 mM 2,3-BPG (FIG. 9, 10); for oxygen affinity modulating effect (increase of P50 value) on fetal hemoglobin compared with 2,3-BPG: FIG. 8, varying concentrations; for oxygen release efficiency of fetal hemoglobin (HbF) relative to normal hemoglobin: with 2,3-BPG (FIG. 9, 10)
Chain of fetal hemoglobin (HbF) (P69905 2-142 limits assumed): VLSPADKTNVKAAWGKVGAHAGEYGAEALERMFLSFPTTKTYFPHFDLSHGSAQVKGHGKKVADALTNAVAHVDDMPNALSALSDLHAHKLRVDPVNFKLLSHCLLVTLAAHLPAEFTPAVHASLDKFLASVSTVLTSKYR
Chain of fetal hemoglobin (HbF) (P69892 2-147 limits assumed): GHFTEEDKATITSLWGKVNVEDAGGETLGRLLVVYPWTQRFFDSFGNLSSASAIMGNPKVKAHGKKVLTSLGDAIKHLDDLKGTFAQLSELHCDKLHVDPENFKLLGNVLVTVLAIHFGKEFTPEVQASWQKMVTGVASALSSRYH

Chain of hemoglobin (P69905 2-142 limits assumed): as the sequence (P69905 2-142 limits assumed) above
Chain of hemoglobin (P68871 2-147 limits assumed): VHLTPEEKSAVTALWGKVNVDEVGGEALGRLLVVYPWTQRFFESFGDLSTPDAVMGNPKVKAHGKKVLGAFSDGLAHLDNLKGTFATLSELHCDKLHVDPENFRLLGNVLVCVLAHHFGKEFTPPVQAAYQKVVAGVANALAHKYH

SMILES: O=C(O)C(COP(=O)(O)O)OP(=O)(O)O (centres unmarked) [2,3-BPG, 2,3-bisphosphorglycerate]
- oxygen release efficiency of hemoglobin (hemoglobin; 1.2 mM 2,3-BPG, PO2 20 mmHg): 40%
- oxygen saturation fraction of hemoglobin (hemoglobin; 1.2 mM 2,3-BPG, PO2 20 mmHg (FIG. 7)): approximately 60%
- oxygen saturation fraction of hemoglobin (hemoglobin; 12 mM 2,3-BPG, fixed oxygen partial pressure of 20 mmHg, 80% where no 2,3-BPG is present): 35%
- oxygen release efficiency of hemoglobin (hemoglobin; 12 mM 2,3-BPG, oxygen partial pressure 20 mmHg, 20% without 2,3-BPG): 65%
- P50 value of hemoglobin (hemoglobin; approximately 4 mM 2,3-BPG, no phthalide compound): 18.8 mmHg
- oxygen release efficiency of normal cells (hemoglobin; varying concentrations of 2,3-BPG, PO2 of normal cells, from 20%): ~65%
- oxygen saturation fraction of hemoglobin (hemoglobin; varying concentrations of 2,3-BPG, brain physiological PO2 (33.8±2.6 mmHg), from 90% (FIG. 4)): ~70%
- oxygen release efficiency of hemoglobin (hemoglobin; varying concentrations of 2,3-BPG, brain physiological PO2, from 10%): 30%
- modulating effect of 2,3-BPG on fetal hemoglobin (HbF) relative to normal hemoglobin (fetal hemoglobin (HbF)): not as effective as that on the normal hemoglobin

SMILES: CCC/C=C1\OC(=O)c2ccccc21 [Z-butylidenephthalide]
- shift of the oxygen equilibrium curve of fetal hemoglobin (HbF) (fetal hemoglobin (HbF)): effectively shift the oxygen equilibrium curve for the fetal hemoglobin (HbF) to the right; also recorded: effectively shift the oxygen equilibrium curve of the fetal hemoglobin (HbF) to the right
- oxygen affinity modulating effect (increase of P50 value) on fetal hemoglobin compared with 2,3-BPG (fetal hemoglobin (HbF)): stronger modulating effect than 2,3-BPG; also recorded: higher than that of 2,3-BPG
- oxygen release efficiency of fetal hemoglobin (HbF) relative to normal hemoglobin (fetal hemoglobin (HbF)): achieve the same oxygen release efficiency as the normal hemoglobin

SMILES: CCC/C=C1\OC(=O)C2=C1CCC=C2 [Z-ligustilide]
- effect with 2,3-BPG in modulating hemoglobin allostery (hemoglobin): synergistic effect
- shift of the oxygen equilibrium curve of fetal hemoglobin (HbF) (fetal hemoglobin (HbF)): effectively shift the oxygen equilibrium curve for the fetal hemoglobin (HbF) to the right
- oxygen affinity modulating effect (increase of P50 value) on fetal hemoglobin compared with 2,3-BPG (fetal hemoglobin (HbF)): stronger modulating effect than 2,3-BPG; also recorded: higher than that of 2,3-BPG
- oxygen release efficiency of fetal hemoglobin (HbF) relative to normal hemoglobin (fetal hemoglobin (HbF)): achieve the same oxygen release efficiency as the normal hemoglobin

SMILES: CCC/C=C1\OC(=O)C2=C1CC[C@@H](O)[C@@H]2O [senkyunolide I]
- effect with 2,3-BPG in modulating hemoglobin allostery (hemoglobin): synergistic effect
